In ChEMBL document CHEMBL1201862, “PubChem BioAssay data set” (2004):
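Results reflect a 48-hour exposure of cells in 96-well plates to compound at five concentrations. GI50 = concentration required for 50% inhibition of growth.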 Activity calls are given as the source filed them. No stated cut-off is given here; in the data, active = GI50 up to about 1.1 µM and inactive = higher.

Legend:
Assay in all cases: NCI anticancer screen, dose series, 48 h
[1] = test system: 786-0
[2] = test system: A498
[3] = test system: A549
[4] = test system: ACHN
[5] = test system: BT-549
[6] = test system: CAKI-1
[7] = test system: CCRF-CEM
[8] = test system: COLO 205
[9] = test system: DU-145
[10] = test system: EKVX
[11] = test system: HCC 2998
[12] = test system: HCT-116
[13] = test system: HCT-15
[14] = test system: HL-60
[15] = test system: HOP-62
[16] = test system: HOP-92
[17] = test system: HT-29
[18] = test system: Hs-578T
[19] = test system: IGROV-1
[20] = test system: K562
[21] = test system: KM12
[22] = test system: LOX IMVI
[23] = test system: M14
[24] = test system: MCF7
[25] = test system: MDA-MB-231
[26] = test system: MDA-MB-435
[27] = test system: MDA-N
[28] = test system: MOLT-4
[29] = test system: Malme-3M
[30] = test system: NCI-H226
[31] = test system: NCI-H23
[32] = test system: NCI-H460
[33] = test system: NCI-H522
[34] = test system: NCI/ADR-RES
[35] = test system: OVCAR-3
[36] = test system: OVCAR-4
[37] = test system: OVCAR-5
[38] = test system: OVCAR-8
[39] = test system: PC-3
[40] = test system: RPMI-8226
[41] = test system: RXF 393
[42] = test system: SF-268
[43] = test system: SF-295
[44] = test system: SF-539
[45] = test system: SK-MEL-28
[46] = test system: SK-MEL-2
[47] = test system: SK-MEL-5
[48] = test system: SK-OV-3
[49] = test system: SN12C
[50] = test system: SNB-19
[51] = test system: SNB-75
[52] = test system: SR
[53] = test system: SW-620
[54] = test system: TK-10
[55] = test system: U-251
[56] = test system: UACC-257
[57] = test system: UACC-62
[58] = test system: UO-31
[59] = test system: T47D

Measured: GI50

COc1ccc(/N=N/C(=NNC(=O)c2ccc(C)cc2)c2ccc(N(C)C)cc2)cc1
32.4 µM: [13]
inactive: [1] 39.1 µM | [2] 52 µM | [3] 48.3 µM | [4] 35.1 µM | [5] 27.7 µM | [6] > 91.8 µM | [7] 14 µM | [8] 6.84 µM | [9] 25.1 µM | [10] 37.7 µM | [11] 35.3 µM | [12] 34.4 µM | [14] 2.32 µM | [15] 49.1 µM | [16] 41.5 µM | [17] 30.3 µM | [18] > 100 µM | [19] 59.6 µM | [20] 29.4 µM | [21] 30.1 µM | [22] 34.8 µM | [23] 43.1 µM | [24] 17.1 µM | [25] 64.4 µM | [26] 20.1 µM | [27] 23.8 µM | [28] 20.9 µM | [29] 34.6 µM | [30] 39.8 µM | [31] 26.4 µM | [32] 39.7 µM | [33] 28.9 µM | [34] 33.8 µM | [35] 28.4 µM | [36] 31.8 µM | [37] > 85.9 µM | [38] 40.3 µM | [39] 57.7 µM | [40] 17.5 µM | [41] 32 µM | [42] > 85.7 µM | [43] 28.4 µM | [44] > 100 µM | [45] > 59.7 µM | [46] 50.8 µM | [47] 27.2 µM | [48] 31.8 µM | [49] 56.6 µM | [50] 61.2 µM | [51] 87.3 µM | [52] 23.1 µM | [53] 56.8 µM | [54] > 100 µM | [55] 63.7 µM | [56] 33.3 µM | [57] 25.1 µM | [58] 52.2 µM

Cc1ccc(NC(Nc2ccc(C)cc2C)=C(C(Cl)=C(Cl)Cl)[N+](=O)[O-])c(C)c1
inactive: [1] 16.1 µM | [2] 21.3 µM | [3] 12.6 µM | [4] 15.2 µM | [5] 14.2 µM | [6] 20.6 µM | [7] 3.35 µM | [8] 17.5 µM | [9] 14.7 µM | [10] 15.1 µM | [11] 18 µM | [12] 13.7 µM | [14] 4.12 µM | [15] 16.9 µM | [16] 12.4 µM | [17] 17.5 µM | [18] 22.8 µM | [19] 14.1 µM | [20] 9.53 µM | [21] 15.2 µM | [22] 5.83 µM | [23] 5.36 µM | [24] 38.7 µM | [25] 15.5 µM | [26] 4.89 µM | [28] 10.7 µM | [29] 16.9 µM | [30] 14.6 µM | [31] 6.22 µM | [32] 13.9 µM | [33] 11.1 µM | [34] 7.21 µM | [35] 15.4 µM | [36] 15.7 µM | [38] 16.2 µM | [39] 12.4 µM | [40] 19.2 µM | [41] 15.2 µM | [42] 17.3 µM | [44] 21.3 µM | [45] 19.9 µM | [47] 4.63 µM | [48] 20 µM | [49] 14.7 µM | [50] 16.2 µM | [51] 9.35 µM | [52] 2.9 µM | [53] 16.8 µM | [59] 10.5 µM | [54] 16.9 µM | [56] 15.9 µM | [57] 14.2 µM | [58] 13.7 µM
14.9 µM: [13]
